“Also recorded” adds a separate entry of the source.
Key:
[1] = tested on: oligodendrocytes (CNP positive cells); assay: Oligodendrocyte density (CNP positive cells) in white matter, mouse model of chronic hypoxia; assay type: in vivo, mice; details: Hx-BH4 vs Hx; 10.5% FiO2 postnatal day 3 to 11; n=3-6 each
Source text: (§1) FIG. 3. Correspondence between human and rodent gestation periods. Regarding WM development, postnatal days 3-11 in mice correspond to the 3rd trimester of human pregnancy. The murine model was used by the inventors to investigate the effects of hypoxia and treatment of hypoxia by BH4. A mouse model of chronic hypoxia during a period that corresponds to the 3rd trimester in human white matter development is described by […], et al ^47 and by Raymond, et al. ^48, both of which are incorporated by reference. Three groups of mice: Normoxic controls (Nx), Hypoxic (Hx), Hypoxic treated with BH4 (Hx-BH4). Hx and Hx-BH4 mice were kept at 10.5% FiO2 from postnatal day 3 to 11-a period of WM development equivalent to the 3rd trimester in humans as illustrated by FIG. 3. BH4 brain levels were quantified and compared between Nx (n=11) and Hx (n=12). Densities of cells expressing CNP, a marker of oligodendrocytes which are cells responsible for myelination, and Caspase3, an apoptosis marker, were compared between all groups (n=3-6 each). Expression of myelin basic protean, a myelination marker, was quantified using Western Blot (n=7-12 each).

[2] = tested on: WM integrity and damage; details: in vivo; cited from earlier work
[3] = tested on: Myelin Basic Protein; assay: Expression of myelin basic protein (Western blot, immunohistochemistry), mouse model of chronic hypoxia; assay type: in vivo, mice
Source text: as §1

[4] = cited from earlier work
[5] = in vivo; cited from earlier work
[6] = tested on: apoptotic cells (Caspase3 positive); assay: Apoptotic cell density (Caspase3 positive) in white matter, mouse model of chronic hypoxia; assay type: in vivo, mice
Source text: as §1

Compound: C[C@H](O)[C@H](O)[C@H]1CNc2nc(N)[nH]c(=O)c2N1 [BH4, Tetrahydrobiopterin]
- Effect of BH4 treatment on hypoxia-induced increase of oligodendrocyte density [1]: not limited by BH4 therapy; also recorded: did not limit this effect
- WM integrity and damage in children with phenylketonuria treated early [2]: Improvements of WM integrity and damage
- Effect of BH4 treatment on hypoxia-decreased expression of myelin basic protein ([3]; Hx-BH4 vs Hx, p=0.006, 10.5% FiO2 postnatal day 3 to 11, n=7-12 each): mitigated by BH4 therapy; also recorded: increased with BH4 treatment
- Expression of myelin basic protein, Hx-BH4 compared with normoxic controls ([3]; Hx-BH4 vs Nx): no significant difference between normoxic controls (Nx) and hypoxic mice treated with BH4 (Hx-BH4)
- Safety and tolerability in long-term follow-up studies ([4]; humans, wide range of doses): safe and well tolerated
- Teratological effects ([4]; in vivo): no teratological effects have been documented
- Maternal BH4 treatment in pregnant females ([4]; recent trials): efficient and safe
- Placental crossing and fetal tissue distribution [5]: crosses the placenta and distributes throughout fetal tissues, including the brain
- Effect of BH4 treatment on hypoxia-increased WM apoptosis (apoptotic cell density) ([6]; Hx-BH4 vs Hx, p=0.01, 10.5% FiO2 postnatal day 3 to 11, n=3-6 each): mitigate this effect; also recorded: decreased with BH4 treatment
- Apoptotic cell density, Hx-BH4 compared with normoxic controls ([6]; Hx-BH4 vs Nx): no difference in apoptotic cell density between Nx and Hx-BH4

— patent US20180221371A1, “TREATMENT FOR THE FETUS WITH CONGENITAL HEART DISEASE” (CHILDREN'S NATIONAL MEDICAL CENTER, priority 2015, published 2018)
